The results in this text go back to patent US7566727B2, “2-(1-aza-bicyclo[2.2.2]oct-3-yl)-2,3-dihydro-isoindole-1-one/5,6-dihydro-furo[2,3-c] pyrrol-4-one derivative ligands for alpha 7 nicotinic acetylcholine receptor” (priority 2004, dated 2009).

This assay deals with α7 nAChR subtype (Rattus norvegicus, UniProt Q05941). Put plainly: Test A: 125I-α-Bungarotoxin binding to rat hippocampal membranes (affinity at α7 nAChR subtype). The conditions noted are these: [125I]α-BTX displacement, rat hippocampal membranes. The method, then: Test A—Assay for Affinity at α7 nAChR subtype
125I-α-Bungarotoxin (BTX) binding to rat hippocampal membranes. Rat hippocampi were homogenized in 20 volumes of cold homogenization buffer (HB: concentrations of constituents (mM): tris(hydroxymethyl)aminomethane 50; MgCl2 1; NaCl 120; KCl 5: pH 7.4). The homogenate was centrifuged for 5 minutes at 1000 g, the supernatant was saved and the pellet re-extracted. The pooled supernatants were centrifuged for 20 minutes at 12,000 g, washed, and re-suspended in HB. Membranes (30-80 μg) were incubated with 5 nM [^125I] α-BTX, 1 mg/mL BSA (bovine serum albumin), test drug, and either 2 mM CaCl2 or 0.5 mM EGTA [ethylene glycol-bis(β-aminoethylether)] for 2 hours at 21° C., and then filtered and washed 4 times over Whatman glass fibre filters (thickness C) using a Brandel cell harvester.
Binding data analysis for Tests A and B
IC50 values and pseudo Hill coefficients (nH) were calculated using the non-linear curve fitting program ALLFIT (DeLean A, Munson P J and Rodbard D (1977) Am. J. Physiol., 235:E97-E102). […] Ki values were determined using 6 or more drug concentrations.

Sequence of α7 nAChR subtype (Q05941 23-502): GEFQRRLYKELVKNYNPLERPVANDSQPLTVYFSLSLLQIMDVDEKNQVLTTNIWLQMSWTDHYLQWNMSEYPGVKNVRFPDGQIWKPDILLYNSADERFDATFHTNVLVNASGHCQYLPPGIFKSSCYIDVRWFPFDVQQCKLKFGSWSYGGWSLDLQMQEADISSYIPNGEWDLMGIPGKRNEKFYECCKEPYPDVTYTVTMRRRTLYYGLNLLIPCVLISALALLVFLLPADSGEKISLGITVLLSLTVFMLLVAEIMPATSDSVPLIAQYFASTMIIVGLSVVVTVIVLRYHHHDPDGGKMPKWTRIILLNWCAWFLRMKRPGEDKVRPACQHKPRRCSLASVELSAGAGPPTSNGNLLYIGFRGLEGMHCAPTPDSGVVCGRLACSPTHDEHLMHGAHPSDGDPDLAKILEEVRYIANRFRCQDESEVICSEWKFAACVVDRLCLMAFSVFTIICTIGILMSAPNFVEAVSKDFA

What is called Ki is the dissociation constant of the complex between target and ligand, obtained from inhibition or displacement. Read a high Ki as a looser hold on the target. On to `CC(=O)Nc1ccccc1-c1ccc2c(c1)C(=O)N([C@H]1CN3CCC1CC3)C2` [Example 65, N-[2-((R)-2-1-Aza-bicyclo[2.2.2]oct-3-yl-3-oxo-2,3-dihydro-1H-isoindol-5-yl)-phenyl]-acetamide], for which the Ki was found to be 1.15 µM.

As for `O=C1c2cc(-c3ccccc3Cl)ccc2CN1[C@H]1CN2CCC1CC2` [Example 35, 2-(R)-1-Aza-bicyclo[2.2.2]oct-3-yl-6-(2-chloro-phenyl)-2,3-dihydro-isoindol-1-one], the Ki is 0.0063 µM.

The molecule `O=C(c1cccc(-c2ccc3c(c2)C(=O)N([C@H]2CN4CCC2CC4)C3)c1)N1CCCCC1` [Example 69, 2-(R)-1-Aza-bicyclo[2.2.2]oct-3-yl-6-[3-(piperidine-1-carbonyl)-phenyl]-2,3-dihydro-isoindol-1-one] showed a Ki of 0.023 µM.

`COc1ccc(-c2ccc3c(c2)C(=O)N([C@H]2CN4CCC2CC4)C3)cn1` [Example 46, 2-(R)-1-Aza-bicyclo[2.2.2]oct-3-yl-6-(6-methoxy-pyridin-3-yl)-2,3-dihydro-isoindol-1-one]: affinity was put at a Ki of 0.29 µM.

Consider `O=C1c2cc(-c3cccc4cccnc34)ccc2CN1[C@H]1CN2CCC1CC2` [Example 33, 2-(R)-1-Aza-bicyclo[2.2.2]oct-3-yl-6-quinolin-8-yl-2,3-dihydro-isoindol-1-one], for which affinity was put at a Ki of 0.09 µM.

In turn, `O=C(c1cccc(-c2ccc3c(c2)C(=O)N([C@H]2CN4CCC2CC4)C3)c1)N1CCCC1` [Example 70, 2-(R)-1-Aza-bicyclo[2.2.2]oct-3-yl-6-[3-(pyrrolidine-1-carbonyl)-phenyl]-2,3-dihydro-isoindol-1-one] had a Ki of 0.014 µM.

As for `O=C1c2cc(Cl)ccc2CN1[C@H]1CN2CCC1CC2` [Example 29, 2-(R)-1-Aza-bicyclo[2.2.2]oct-3-yl-6-chloro-2,3-dihydro-isoindol-1-one], the Ki worked out at 0.289 µM.

The molecule `O=C1c2cc(-c3cnn(Cc4ccccc4)c3)ccc2CN1[C@H]1CN2CCC1CC2` [Example 51, 2-(R)-1-Aza-bicyclo[2.2.2]oct-3-yl-6-(1-benzyl-1H-pyrazol-4-yl)-2,3-dihydro-isoindol-1-one] came in with a Ki of 0.146 µM.

`CCC(=O)Nc1cccc(-c2ccc3c(c2)C(=O)N([C@H]2CN4CCC2CC4)C3)c1` [Example 58, N-[3-((R)-2-1-Aza-bicyclo[2.2.2]oct-3-yl-3-oxo-2,3-dihydro-1H-isoindol-5-yl)-phenyl]-propionamide] yielded a Ki of 0.0017 µM.

In the case of `O=C1c2cc(-c3cccc4cnccc34)ccc2CN1[C@H]1CN2CCC1CC2` [Example 47, 2-(R)-1-Aza-bicyclo[2.2.2]oct-3-yl-6-isoquinolin-5-yl-2,3-dihydro-isoindol-1-one], the affinity, expressed as Ki, was 0.032 µM.
